{
  "source": "paper PMC7698842",
  "about": "“Lanostane Triterpenoid Metabolites from a Penares sp. Marine Sponge Protect Neuro-2a Cells against Paraquat Neurotoxicity” (Molecules, 2020)",
  "key": {"[1]": {"test": "Cytotoxicity toward Neuro-2a cells (MTT assay)", "type": "cell-based, mouse", "conditions": "mouse, Neuro-2a neuroblastoma cells, 24 h", "method": "(§1) The cells of mouse neuroblastoma cell line Neuro-2a (ATCC® CCL-131™; American Type Culture Collection, Manassas, VA, USA) were cultured in Dulbecco’s modified Eagle’s medium (DMEM) containing 10% fetal bovine serum (Biolot, St. Petersburg, Russia) and 1% penicillin/streptomycin (Biolot, St. Petersburg, Russia) at 37 °C in a humidified atmosphere with 5% (v/v) CO2. Initially, cells were incubated in cultural flasks until sub-confluent (~80%). For testing, Neuro-2a cells were seeded in 96- or 6-well plates and experiments were started after 24 h.\n(§2) The cells (1 × 10^4 cells/well of a 96-well plate) were incubated with different concentrations of studied compounds during 24 h. After that, cell viability was determined by the MTT (3-(4,5-dimethylthiazol-2-yl)-2,5-diphenyltetrazolium bromide) method according to the manufacturer’s instructions (Sigma-Aldrich, St. Louis, MO, USA). Absorbance of the converted formazan was measured using a Multiskan FC microplate photometer (Thermo Scientific, Waltham, MA, USA) at λ = 570 nm. The results were presented as percent of control data, and concentration of cell viability inhibition on 50% (IC50) was calculated."}, "[2]": {"test_system": "Neuro-2a cells", "test": "Cytotoxicity toward Neuro-2a cells (MTT assay)", "type": "cell-based, mouse", "conditions": "Neuro-2a cells, 100 μM, MTT assay", "method": "as §1, §2"}, "[3]": {"test": "DPPH radical scavenging assay (cell-free)", "conditions": "30 min, MeOH", "method": "The 2,2-diphenyl-1-picryl-hydrazyl-hydrate (DPPH) radical scavenging activity was tested as described previously. The compounds were dissolved in MeOH, and the solutions (120 µL) were dispensed into wells of a 96-well microplate. The DPPH (Sigma-Aldrich, Steinheim, Germany) was dissolved in MeOH at a concentration of 7.5 × 10^−3 M and the solution (30 µL) was added to each well. The concentrations of tested compounds in the mixtures were 10 and 100 µM. Ascorbic acid was used as a positive control. The mixtures were shaken and left for 30 min. The absorbance of the resulting solutions was measured at λ = 520 nm with a MultiscanFC plate reader (Thermo Scientific, Waltham, MA, USA). The concentration scavenging 50% of the DPPH radical (EC50) was calculated for each compound."}, "[4]": {"test_system": "PQ-treated Neuro-2a cells", "test": "Propidium iodide straining of PQ-treated Neuro-2a cells (membrane permeability)", "type": "cell-based, mouse", "conditions": "PQ-treated cells, 24 h", "method": "The cells (1 × 10^4 cells/well) were seeded in black 96-well plates before testing. After incubation of the cells with compounds and PQ during 24 h, PI solution (10 μg/mL) was added to each well and the plate was incubated in the dark at 37 °C for 10 min. Cells were washed with phosphate buffer saline (PBS) (BioloT, St.Peterburg, Russia) and fluorescence was measured with a Fluoroskan Ascent plate reader (Thermo Labsystems, Helsinki, Finland) at […]. All manipulations with fluorescent probes were carried out in a darkened room. The results were presented as percent of positive control data."}, "[5]": {"test_system": "ROS level in PQ-treated Neuro-2a cells", "test": "ROS level analysis in PQ-treated Neuro-2a cells (H2DCFDA)", "type": "cell-based, mouse", "conditions": "tested at 1 and 10 μM, PQ 500 µM 1 h", "method": "The cells (1 × 10^4 cells/well of a 96-well plate) were incubated with compound solutions (1 and 10 µM) during 1 h. Then, PQ was added to cell suspension to a resulting concentration of 500 µM for incubation during 1 h. Cells incubated without PQ and compounds and with PQ alone were used as positive and negative controls, respectively. The 20 µL of 2,7-dichlorodihydrofluorescein diacetate solution (H2DCFDA, Molecular Probes, Eugene, OR, USA) was added to each well (10 µM, final concentration) and the plate was incubated for an additional 10 min at 37 °C. The intensity of dichlorofluorescin fluorescence was measured with a PHERAstar FS plate reader (BMG Labtech, Ortenberg, Germany) at λex = 485 nm and λem = 518 nm. The data were processed by MARS Data Analysis v. 3.01R2 (BMG Labtech, Ortenberg, Germany). The results were presented as percent of positive control data."}, "[6]": {"test_system": "mitochondrial membrane potential in PQ-treated Neuro-2a cells", "test": "Mitochondrial membrane potential detection (TMRM) in PQ-treated Neuro-2a cells", "type": "cell-based, mouse", "conditions": "compound 10 μM, PQ 500 µM 1 h", "method": "The cells (1 × 10^4 cells/well of a 96-well plate) were incubated with compound solutions (1 and 10 µM) during 1 h. Then, PQ was added to cell suspension to a resulting concentration of 500 µM for incubation during 1 h. Cells incubated without PQ and compounds and with PQ alone were used as positive and negative controls, respectively. The tetramethylrhodamine methyl (TMRM) (Sigma-Aldrich, St. Louis, MO, USA) solution at 500 nM was added in each well and cells were incubated for 30 min at 37 °C. The intensity of fluorescence was measured with a PHERAstar FS plate reader (BMG Labtech, Ortenberg, Germany) at λex = 540 nm and λem = 590 nm. The data were processed by MARS Data Analysis v. 3.01R2 (BMG Labtech, Ortenberg, Germany). The results were presented as percent of positive control data."}, "[7]": {"test_system": "Hsp70 level in Neuro-2a cells", "test": "Hsp70 level analysis by Western blot in Neuro-2a cells", "type": "cell-based, mouse", "conditions": "compound 10 µM 1 h, then PQ 500 µM 24 h", "method": "The Hsp70 expression was detected by Western blot analysis. Cell suspensions (1.6 × 10^5 cells/well of a 6-well plate) were seeded and treated with studied compounds at a concentration of 10 µM for 1 h. After that, PQ (500 µM) was added and cells were incubated during 24 h. Cells incubated without PQ and compounds and with PQ alone were used as positive and negative controls, respectively. Cells were washed by cold PBS (BioloT, Russia) twice and lysed by radioimmunoprecipitation assay (RIPA) buffer (BioloT, St. Peterburg, Russia). The amount of proteins was measured by the Bradford method and equal samples (25 µg) were prepared using sample buffer. Proteins were separated with sodium dodecyl sulphate (SDS) electrophoresis in 10% polyacrylamide gel. The electrophoretically separated proteins were transferred onto the polyvinylidene difluoride (PVDF) membrane Whatman (Sigma-Aldrich, St. Louis, MO, USA) using a semi-dry transfer apparatus (Helicon, Moscow, Russia). […] The peroxidase reaction was visualized by an enhanced chemiluminescence (ECL) kit according to the instructions of the manufacturer (Sigma-Aldrich, St. Louis, MO, USA) using the VersaDoc Imaging System (Bio-Rad, Hercules, CA, USA)."}, "[8]": {"test_system": "PQ-treated Neuro-2a cells", "test": "Neurite outgrowth estimation in PQ-treated Neuro-2a cells", "type": "cell-based, mouse", "method": "Neurite outgrowth was studied as described by Li et al.. Neuro-2a cells were seeded in 6-well plates (1.6 × 10^5 cells/well) in DMEM medium containing 10% fetal bovine serum (Biolot, St. Peterburg, Russia) and 1% penicillin/streptomycin (Invitrogen, Carlsbad, CA, USA). The next day, this growth media was changed with serum-free DMEM media containing 1% penicillin/streptomycin, and cells were treated with studied compounds at a concentration of 10 µM for 1 h. After that, PQ (500 µM) was added and cells were incubated during 24 h. Cells incubated without PQ and compounds and with PQ alone were used as positive and negative controls, respectively.\nFor each well, approximately 10 images were acquired randomly by scanning the wells from left to right and top to bottom using the AxioImager A1 microscope (CarlZeiss, Oberkochen, Germany). A total of ten random fields (near 350 cells in each) for each experimental group were scored for neurite outgrowth. The number of neurite-bearing cells and lengths of the individual neurites for each cell were measured using the AxioVision 4.7.1 software (CarlZeiss, Oberkochen, Germany). Length was defined as the straight-line distance from the tip of the neurite to the junction between the cell body and neurite base. In the case of branched neurites, the length of the longest branch was measured from the tip of the neurite to the cell body. In each experimental group, the average length of neurites was calculated, as well as the average number of neurites per one cell."}, "[9]": {"test_system": "histamine release induced by anti-IgE", "conditions": "cited from earlier work"}, "[10]": {"conditions": "cells incubated with compound 10 µM and PQ 500 µM"}, "[11]": {"conditions": "compound 10 µM 1 h, then PQ 500 µM 24 h"}},
  "data": [
    {"smiles": "CC(=O)O[C@H]1CC[C@]2(C)C3=C(CC[C@H]2C1(C)C)[C@]1(C(=O)O)CC[C@H]([C@H](C)CCC=C(C)C)[C@@]1(C)CC3", "note": "[Compound 5, acetylpenasterol]", "values": [
      {"measurement": "activity at 24 h, 10 µM", "setting": "[1]; Neuro-2a cell viability, 10 μM, read-out: Cytotoxicity (MTT Assay) % of Control at 10 μM", "result": "97.9 ± 3.3", "unit": "%"},
      {"measurement": "IC50 at 24 h", "setting": "[1]; Neuro-2a cells", "result": "> 100", "unit": "µM"},
      {"measurement": "death of cells", "setting": "[2]", "result": 45.6, "unit": "%"},
      {"measurement": "EC50", "setting": "[3]", "result": "> 100", "unit": "µM"},
      {"measurement": "decrease of fluorescence of PI-straining cells", "setting": "[4]; compound 1 μM pre-incubation", "result": 20, "unit": "%"},
      {"measurement": "decrease of fluorescence of PI-straining cells", "setting": "[4]; compound 10 μM pre-incubation", "result": 24, "unit": "%"},
      {"measurement": "concentrations at which ROS content in PQ-treated cells was reduced", "setting": "[5]", "result": "effective at concentrations of 1 and 10 μM"},
      {"measurement": "increase of intensity of TMRM fluorescence (PQ-induced mitochondrial dysfunction diminished)", "setting": "[6]", "result": 35, "unit": "%"},
      {"measurement": "effect on Hsp70 level in PQ-treated cells", "setting": "[7]", "result": "raised it to the initial level"},
      {"measurement": "proportion of neurites with a length of 0–4.99 µm in the total number", "setting": "[8]; [10]", "result": 6.4, "unit": "%"},
      {"measurement": "proportion of neurites with a length of 10.00–14.99 µm in the total number", "setting": "[8]; [10]", "result": 20.7, "unit": "%"},
      {"measurement": "increase in the average number of neurites per cell", "setting": "[8]; [11]", "result": 20, "unit": "%"},
      {"measurement": "increase of neurites-bearing cell amount compared to PQ-treated control", "setting": "[8]; [11]", "result": 144, "unit": "%"},
      {"measurement": "inhibition of histamine release induced by anti-IgE", "setting": "[9]", "result": "inhibitors of histamine release"}
    ]}
  ]
}
